Consider two compounds from US8354534B2, “Selective opioid compounds” (Alkermes, Inc., priority 2008, dated 2013).

For the test, the system named is morphine inhibition of prostaglandin E2 (PGE2) induced diarrhea. As to the kind of experiment: Antagonism of morphine-inhibited diarrhea in mice. The class given is in vivo, mice (Swiss-Webster). The conditions noted are these: morphine 1 mg/kg s.c., PGE2 320 μg/kg at 30 min, watery stools observed, result shown only in figure. On the procedure:
Albino mice of either sex (Swiss-Webster) weighing 20-30 g were used to determine the ability of an opioid antagonist to antagonize morphine inhibition of prostaglandin E2 (PGE2) induced diarrhea according to the method of Dajani et al. (1979). Briefly, mice are treated at time 0 with morphine, 1 mg/kg s.c. and an opioid antagonist, 60, 180, 240, 300, 360, 480, or 720 mg/kg orally; or 3, 10, 30, 100 or 140 mg/kg i.p; or saline, 0.1 ml/10 gm body weight orally or i.p. Mice are then treated at 30 min with PGE2, 320 μg/kg which consistently produced watery stools in the absence of morphine. […] Eleven to 24 mice were used per dose of an opioid antagonist for the oral and 6 are used for the i.p. routes. Data was analyzed using Fisher's exact probability test (Siegel, 1956). These studies were repeated using naltrexone, 0.005, 0.01, 0.05, 0.1, and 5 mg/kg i.p. and 0.5, 1, 2, and 4 mg/kg orally.

SMILES strings stand for the structures.

For the compound `NC(=O)c1ccc2c(c1O)[C@]13CCN(CC4CC4)[C@H](C2)[C@]1(O)CC[C@@H](NC(=O)[C@@H](N)CC(=O)O)C3` [Compound 12], the “Inhibition of morphine blockade of PGE2-induced diarrhea” value is “Inhibition of morphine blockade of PGE2-induced diarrhea”.

For `NC(=O)c1ccc2c(c1O)[C@]13CCN(CC4CC4)[C@H](C2)[C@]1(O)CC[C@@H](NC(CC(=O)O)C(=O)O)C3` (some centres unmarked) [Compound 13], the “Inhibition of morphine blockade of PGE2-induced diarrhea” value is reported as “Inhibition of morphine blockade of PGE2-induced diarrhea”.
